PubChem BioAssay AID248 (DTP/NCI, 2004)
Values joined by “and” are separate entries in the source; they are usually repeats but may differ in a detail not shown here. Equal entries are not always repeated. Toxic doses and inconclusive results are not listed. Rule as the data show it: active = T/C of 150% or more; inactive = T/C below 125%.

Tested on: L1210 leukemia ip in BDF1 mice, survival T/C
Test: NCI In Vivo Anticancer Drug Screen. Data for tumor model L1210 Leukemia (intraperitoneal) in B6D2F1 (BDF1) mice
Details: endpoint: mean survival time, higher = longer survival
How it was run: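 Value reflects the ratio of survival in compound-treated mice to survival in vehicle-treated controls, with both groups carrying the same transplanted tumor.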

Measured: T/C

CC1=CC(=N\S(=O)(=O)c2ccccc2)/C(=N/S(=O)(=O)c2ccccc2)C=C1
inactive: dose: 100.0 mg/kg/injection, schedule: Q04DX003 (ip), vehicle: saline with Tween-80 94 % of control | dose: 200.0 mg/kg/injection, schedule: Q04DX003 (ip), vehicle: saline with Tween-80 94 % of control | dose: 400.0 mg/kg/injection, schedule: Q04DX003 (ip), vehicle: saline with Tween-80 92 % of control

OCC1CC=CCC1 (stereo unspecified)
inactive: dose: 100.0 mg/kg/injection, schedule: Q01DX009 (ip), vehicle: saline with Tween-80 105 % of control | dose: 200.0 mg/kg/injection, schedule: Q01DX009 (ip), vehicle: saline with Tween-80 106 % of control | dose: 400.0 mg/kg/injection, schedule: Q01DX009 (ip), vehicle: saline with Tween-80 117 % of control

NC(N)=N/N=C(/CCC(=O)O)C(=O)O
inactive: dose: 15.0 mg/kg/injection, schedule: Q01DX Z (ip), vehicle: carboxymethylcellulose (CMC) 100 % of control | dose: 30.0 mg/kg/injection, schedule: Q01DX Z (ip), vehicle: carboxymethylcellulose (CMC) 107 % of control | dose: 60.0 mg/kg/injection, schedule: Q01DX Z (ip), vehicle: carboxymethylcellulose (CMC) 100 % of control and 104 % of control | dose: 60.0 mg/kg/injection, schedule: Q01DX Z (oral), vehicle: carboxymethylcellulose (CMC) 104 % of control | dose: 60.0 mg/kg/injection, schedule: Q01DX Z (oral), vehicle: saline 95 % of control | dose: 120.0 mg/kg/injection, schedule: Q01DX Z (ip), vehicle: carboxymethylcellulose (CMC) 101 % of control and 106 % of control | dose: 120.0 mg/kg/injection, schedule: Q01DX Z (oral), vehicle: carboxymethylcellulose (CMC) 98 % of control | dose: 120.0 mg/kg/injection, schedule: Q01DX Z (oral), vehicle: saline 96 % of control | dose: 240.0 mg/kg/injection, schedule: Q01DX Z (ip), vehicle: carboxymethylcellulose (CMC) 98 % of control | dose: 240.0 mg/kg/injection, schedule: Q01DX Z (oral), vehicle: carboxymethylcellulose (CMC) 107 % of control | dose: 240.0 mg/kg/injection, schedule: Q01DX Z (oral), vehicle: saline 98 % of control | dose: 480.0 mg/kg/injection, schedule: Q01DX Z (oral), vehicle: carboxymethylcellulose (CMC) 98 % of control | dose: 480.0 mg/kg/injection, schedule: Q01DX Z (oral), vehicle: saline 98 % of control | dose: 960.0 mg/kg/injection, schedule: Q01DX Z (oral), vehicle: carboxymethylcellulose (CMC) 98 % of control and 113 % of control | dose: 960.0 mg/kg/injection, schedule: Q01DX Z (oral), vehicle: saline 101 % of control
